System: Mythimna separata
Test: Test Example 1: efficacy on Mythimna separata (treated artificial feed)
Assay type: in vivo
Conditions: 1 μl of emulsion (I) (5% active ingredient) in 0.8 g artificial feed; second instar larvae; 25° C.; fifth day
Source text: 5 parts of the heteroaryl azole compound of the present invention, 93.6 parts of dimethylformamide, and 1.4 parts of polyoxyethylene alkyl aryl ether were mixed and dissolved to prepare emulsion (I) containing 5% of the active ingredient.
For a control, 98.5 parts of dimethylformamide and 1.5 parts of polyoxyethylene alkyl aryl ether were mixed and dissolved to prepare emulsion (II).
Insecticidal rate (%)=(The number of dead insects/The number of tested insects)×100
0.8 g of commercially available artificial feed (Insecta LFS, manufactured by Nosan Corp.) and 1 μl of the emulsion (I) were well mixed to obtain test feed.
A plastic test container (capacity: 1.4 ml) was packed with 0.2 g of the test feed per treatment plot. Then, two second instar larvae of Mythimna separata were inoculated to each treatment plot. A plastic lid was put on the test container so as to prevent escape of the second instar larvae of Mythimna separata. The container was placed in a thermostat chamber of 25° C. On the fifth day, the insecticidal rate and the food intake were examined. The test was conducted in duplicate.
The insecticidal rate and the food intake of a control plot were examined in the same way as in Test Example 1 except that the emulsion (I) was changed to the emulsion (II).

Row | SMILES | insecticidal rate or food intake as compared with the control plot
1 | CCS(=O)(=O)c1ccc(-n2cncn2)nc1-c1ncc(C(Cl)C(F)(F)C(F)(F)C(F)(F)C(F)(F)F)n1C (stereo not drawn) [b-13] | insecticidal rate of 100% for Mythimna separata or a food intake of 10% or less
2 | CCS(=O)(=O)c1cc(Br)cnc1-c1ncc(C(F)C(F)(F)C(F)(F)F)n1C (stereo not drawn) [b-23] | insecticidal rate of 100% for Mythimna separata or a food intake of 10% or less
3 | CCS(=O)(=O)c1cc(-c2ccccn2)cnc1-c1ncc(C(F)(F)C(F)(F)C(F)(F)F)n1C [b-29] | insecticidal rate of 100% for Mythimna separata or a food intake of 10% or less
4 | CCS(=O)(=O)c1cc(-c2ccccn2)cnc1-c1ncc(C(F)C(F)(F)C(F)(F)F)n1C (stereo not drawn) [b-27] | insecticidal rate of 100% for Mythimna separata or a food intake of 10% or less
5 | CCS(=O)(=O)c1cc(C2CC2)cnc1-c1ncc(C(F)C(F)(F)C(F)(F)C(F)(F)C(F)(F)F)n1C (stereo not drawn) [b-63] | insecticidal rate of 100% for Mythimna separata or a food intake of 10% or less
6 | CCS(=O)(=O)c1cc(C2CC2)cnc1-c1ncc(C(F)(F)C(F)(F)C(F)(F)F)n1C [b-20] | insecticidal rate of 100% for Mythimna separata or a food intake of 10% or less
7 | CCS(=O)(=O)c1cc(-c2ncccn2)cnc1-c1ncc(C(F)C(F)(F)C(F)(F)C(F)(F)C(F)(F)F)n1C (stereo not drawn) [b-64] | insecticidal rate of 100% for Mythimna separata or a food intake of 10% or less
8 | CCS(=O)(=O)c1cc(-c2ccccn2)cnc1-c1ncc(C(F)C(F)(F)C(F)(F)C(F)(F)C(F)(F)F)n1C (stereo not drawn) [b-66] | insecticidal rate of 100% for Mythimna separata or a food intake of 10% or less
9 | CCS(=O)(=O)c1ccc(-n2cncn2)nc1-c1ncc(C(F)(F)C(F)(F)C(F)(F)F)n1C [b-16] | insecticidal rate of 100% for Mythimna separata or a food intake of 10% or less
10 | CCS(=O)(=O)c1cc(-c2ccccc2F)cnc1-c1ncc(C(F)(F)C(F)(F)C(F)(F)F)n1C [b-58] | insecticidal rate of 100% for Mythimna separata or a food intake of 10% or less
11 | CCSc1cccnc1-c1ncc(C(F)(F)C(F)(F)C(F)(F)C(F)(F)F)n1C [b-2] | insecticidal rate of 100% for Mythimna separata or a food intake of 10% or less
12 | CCS(=O)(=O)c1cnc(OC)nc1-c1ncc(C(F)(F)C(F)(F)C(F)(F)C(F)(F)F)n1C [a-9] | insecticidal rate of 100% for Mythimna separata or a food intake of 10% or less
13 | CCS(=O)(=O)c1cc(C2CC2)cnc1-c1ncc(C(F)C(F)(F)C(F)(F)F)n1C (stereo not drawn) [b-25] | insecticidal rate of 100% for Mythimna separata or a food intake of 10% or less
14 | CCS(=O)(=O)c1ccc(-n2cncn2)nc1-c1ncc(C(F)(F)C(F)(F)C(F)(F)C(F)(F)F)n1C [b-8] | insecticidal rate of 100% for Mythimna separata or a food intake of 10% or less
15 | CCS(=O)(=O)c1cc(NC(=O)C2CC2)cnc1-c1ncc(C(F)(F)C(F)(F)C(F)(F)F)n1C [b-41] | insecticidal rate of 100% for Mythimna separata or a food intake of 10% or less
16 | CCS(=O)(=O)c1cccnc1-c1ncc(C(F)C(F)(F)C(F)(F)C(F)(F)C(F)(F)F)n1C (stereo not drawn) [b-11] | insecticidal rate of 100% for Mythimna separata or a food intake of 10% or less
17 | CCS(=O)(=O)c1cc(-n2cncn2)cnc1-c1ncc(C(F)(F)C(F)(F)C(F)(F)F)n1C [b-45] | insecticidal rate of 100% for Mythimna separata or a food intake of 10% or less
18 | CCS(=O)(=O)c1cc(C2CC2)c[n+]([O-])c1-c1ncc(C(F)C(F)(C(F)(F)F)C(F)(F)F)n1C (stereo not drawn) [c-8] | insecticidal rate of 100% for Mythimna separata or a food intake of 10% or less
19 | CCS(=O)(=O)c1cccnc1-c1ncc(C(F)(F)C(F)(F)C(F)(F)C(F)(F)F)n1C [b-3] | insecticidal rate of 100% for Mythimna separata or a food intake of 10% or less
20 | CCS(=O)(=O)c1cc(-c2cc(F)cc(F)c2)cnc1-c1ncc(C(F)C(F)(F)C(F)(F)F)n1C (stereo not drawn) [b-34] | insecticidal rate of 100% for Mythimna separata or a food intake of 10% or less
21 | CCS(=O)(=O)c1cc(-c2ncccc2Cl)cnc1-c1ncc(C(F)(F)C(F)(F)C(F)(F)F)n1C [b-62] | insecticidal rate of 100% for Mythimna separata or a food intake of 10% or less

Row | SMILES | insecticidal rate or food intake as compared with the control plot
22 | CCS(=O)(=O)c1cc(C(F)(F)F)cnc1-c1ncc(C(F)(F)C(F)(F)C(F)(F)C(F)(F)F)n1C [b-7] | insecticidal rate of 100% for Mythimna separata or a food intake of 10% or less
23 | CCS(=O)(=O)c1cc(-c2ccccn2)cnc1-c1ncc(C(F)C(F)(C(F)(F)F)C(F)(F)F)n1C (stereo not drawn) [b-43] | insecticidal rate of 100% for Mythimna separata or a food intake of 10% or less
24 | CCS(=O)(=O)c1cc(C2(c3ccccn3)CC2)cnc1-c1ncc(C(F)C(F)(C(F)(F)F)C(F)(F)F)n1C (stereo not drawn) [b-57] | insecticidal rate of 100% for Mythimna separata or a food intake of 10% or less
25 | CCS(=O)(=O)c1cc(-c2ncccc2C#N)cnc1-c1ncc(C(F)(F)C(F)(F)C(F)(F)F)n1C [b-54] | insecticidal rate of 100% for Mythimna separata or a food intake of 10% or less
26 | CCS(=O)(=O)c1ccc(-c2ncccn2)nc1-c1ncc(C(F)(F)C(F)(F)C(F)(F)C(F)(F)F)n1C [b-9] | insecticidal rate of 100% for Mythimna separata or a food intake of 10% or less
27 | CCS(=O)(=O)c1cc(-c2ncccc2F)cnc1-c1ncc(C(F)(F)C(F)(F)C(F)(F)C(F)(F)F)n1C [b-61] | insecticidal rate of 100% for Mythimna separata or a food intake of 10% or less
28 | CCS(=O)(=O)c1cc(C2CC2)cnc1-c1ncc(C(F)(F)C(F)(F)F)n1C [b-26] | insecticidal rate of 100% for Mythimna separata or a food intake of 10% or less
29 | CCS(=O)(=O)c1ccc(N)nc1-c1ncc(C(F)(F)C(F)(F)C(F)(F)C(F)(F)F)n1C [b-12] | insecticidal rate of 100% for Mythimna separata or a food intake of 10% or less
30 | CCS(=O)(=O)c1cc(OC(C)(C)C(F)(F)F)cnc1-c1ncc(C(F)C(F)(C(F)(F)F)C(F)(F)F)n1C (stereo not drawn) [b-69] | insecticidal rate of 100% for Mythimna separata or a food intake of 10% or less
31 | CCS(=O)(=O)c1cc(-c2ncccn2)cnc1-c1ncc(C(F)(F)C(F)(F)F)n1C [b-22] | insecticidal rate of 100% for Mythimna separata or a food intake of 10% or less
32 | CCS(=O)(=O)c1ccc(-n2cncn2)nc1-c1ncc(C(F)(F)C(F)(F)F)n1C [b-17] | insecticidal rate of 100% for Mythimna separata or a food intake of 10% or less
33 | CCS(=O)(=O)c1cc(C2CC2)cnc1-c1ncc(C(Cl)C(F)(C(F)(F)F)C(F)(F)F)n1C (stereo not drawn) [b-53] | insecticidal rate of 100% for Mythimna separata or a food intake of 10% or less
34 | CCS(=O)(=O)c1cc(C2CC2)cnc1-c1ncc(C(F)C(F)(F)C(F)(F)C(F)(F)F)n1C (stereo not drawn) [b-18] | insecticidal rate of 100% for Mythimna separata or a food intake of 10% or less
35 | CCS(=O)(=O)c1ccc(-n2cncn2)nc1-c1ncc(C(F)C(F)(F)C(F)(F)C(F)(F)C(F)(F)F)n1C (stereo not drawn) [b-10] | insecticidal rate of 100% for Mythimna separata or a food intake of 10% or less
36 | CCS(=O)(=O)c1cc(-c2cc(F)cc(F)c2)cnc1-c1ncc(C(F)(F)C(F)(F)C(F)(F)F)n1C [b-60] | insecticidal rate of 100% for Mythimna separata or a food intake of 10% or less
37 | CCS(=O)(=O)c1cc(C2CC2)cnc1-c1ncc(C(F)(F)C(F)(F)C(F)(F)C(F)(F)F)n1C [b-1] | insecticidal rate of 100% for Mythimna separata or a food intake of 10% or less
38 | C=Cc1cnc(-c2ncc(C(F)C(F)(F)C(F)(F)F)n2C)c(S(=O)(=O)CC)c1 (stereo not drawn) [b-39] | insecticidal rate of 100% for Mythimna separata or a food intake of 10% or less
39 | CCS(=O)(=O)c1cc(-c2ncccn2)cnc1-c1ncc(C(Cl)C(F)(F)C(F)(F)F)n1C (stereo not drawn) [b-32] | insecticidal rate of 100% for Mythimna separata or a food intake of 10% or less
40 | CCS(=O)(=O)c1cc(C2CC2)cnc1-c1ncc(C(F)C(F)(C(F)(F)F)C(F)(F)F)n1C (stereo not drawn) [b-52] | insecticidal rate of 100% for Mythimna separata or a food intake of 10% or less
41 | CCS(=O)(=O)c1cc(OCC(F)(F)C(F)(F)F)cnc1-c1ncc(C(F)C(F)(C(F)(F)F)C(F)(F)F)n1C (stereo not drawn) [b-68] | insecticidal rate of 100% for Mythimna separata or a food intake of 10% or less
42 | CCS(=O)(=O)c1cc(-c2ccccn2)cnc1-c1ncc(C(Cl)C(F)(C(F)(F)F)C(F)(F)F)n1C (stereo not drawn) [b-44] | insecticidal rate of 100% for Mythimna separata or a food intake of 10% or less

Reference: US20210380556A1, “HETEROARYLAZOLE COMPOUND AND PEST CONTROL AGENT” (Nippon Soda Co., Ltd., priority 2018, published 2021)
